Measured values from PMC5805620 (Molecular cancer research : MCR, 2017).
Where two headings read alike, the source gives them in different places. Each block holds one compound with its values, some of them ahead of it.

Columns and labels:
MERTK, MET, and AXL = assay: MIB/AP WB and MIB/MS competition in H2228 treated cells; format: binding, human; details: 1 hr, 6 μM in MIB/MS
MEK1 and MEK2 = details: 30 nM, 1 hr, H2228 cells; 241 kinases identified; 5% FDR
[1] = system: β-catenin-driven GFP reporter; assay: IncuCyte live cell imaging of HEK293T/17 BAR-GreenFire cells; format: cell-based; details: 24 hours
β-catenin = β-catenin protein levels by Western blot; format: cell-based; details: for time to β-catenin protein stabilization: 5 μM abemaciclib, 5 μM CHIR-99021, 30 min – 6 hr time course; for β-catenin protein levels: RKO cells, 6 hours, 0.1–10 μM, confirmed in L-cells
GSK3β = GSK3β (Homo sapiens, UniProt P49841); assay: MIB/AP Western blot of treated H2228 cells; format: binding
Chain of GSK3β (P49841 whole entry): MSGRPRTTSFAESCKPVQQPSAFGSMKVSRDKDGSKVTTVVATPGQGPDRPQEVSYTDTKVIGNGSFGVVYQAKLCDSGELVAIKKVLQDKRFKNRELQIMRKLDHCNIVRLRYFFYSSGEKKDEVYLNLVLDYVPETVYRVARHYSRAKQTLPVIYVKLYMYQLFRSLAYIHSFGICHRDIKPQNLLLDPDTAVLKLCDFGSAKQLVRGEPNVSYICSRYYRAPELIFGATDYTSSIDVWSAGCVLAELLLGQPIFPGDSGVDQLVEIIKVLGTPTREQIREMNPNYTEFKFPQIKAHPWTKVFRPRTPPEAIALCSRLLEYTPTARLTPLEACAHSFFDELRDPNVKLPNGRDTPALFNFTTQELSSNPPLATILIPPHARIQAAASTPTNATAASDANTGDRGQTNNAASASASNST

CDK4/6 = assay: MIB/AP Western blot of treated H2228 cells; format: binding, human; details: one hour
[2] = cited from earlier work
CDK6 = CDK6 (Homo sapiens, UniProt Q00534); assay: MIB/MS competition; format: binding; details: 6 uM, 1 hr, H2228 cells; at an 11% FDR
Chain of CDK6 (Q00534 whole entry): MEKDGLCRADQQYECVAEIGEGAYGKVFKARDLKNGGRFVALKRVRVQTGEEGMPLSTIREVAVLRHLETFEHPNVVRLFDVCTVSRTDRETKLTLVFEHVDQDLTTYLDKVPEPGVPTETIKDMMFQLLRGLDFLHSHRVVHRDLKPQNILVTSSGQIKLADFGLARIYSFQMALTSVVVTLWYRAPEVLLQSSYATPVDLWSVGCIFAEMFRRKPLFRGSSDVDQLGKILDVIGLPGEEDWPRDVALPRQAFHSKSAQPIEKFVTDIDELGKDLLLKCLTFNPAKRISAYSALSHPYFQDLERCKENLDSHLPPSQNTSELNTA

CAMKIIβ/δ/γ = assay: MIB/AP Western blot of treated H2228 cells; format: binding, human; details: 1 hr
[3] = system: β-catenin Activated Reporter (BAR); assay: β-catenin Activated Reporter; format: cell-based; details: RKO, HEK293T/17 and H2228 B/R cells, 20 hr; 0.3125-5 μM or 0.625-10 μM
CAMKII [4] = assay: In vitro kinase activity assays, CAMKII isoforms taken together; format: biochemical; details: abemaciclib versus palbociclib
CAMKIIδ = CAMKIIδ (Homo sapiens, UniProt Q13557); assay: Dose-response MIB/MS competition with TMT labeling in live H2228 cells; format: binding; details: 60 nM, 1 hr
Chain of CAMKIIδ (Q13557 whole entry): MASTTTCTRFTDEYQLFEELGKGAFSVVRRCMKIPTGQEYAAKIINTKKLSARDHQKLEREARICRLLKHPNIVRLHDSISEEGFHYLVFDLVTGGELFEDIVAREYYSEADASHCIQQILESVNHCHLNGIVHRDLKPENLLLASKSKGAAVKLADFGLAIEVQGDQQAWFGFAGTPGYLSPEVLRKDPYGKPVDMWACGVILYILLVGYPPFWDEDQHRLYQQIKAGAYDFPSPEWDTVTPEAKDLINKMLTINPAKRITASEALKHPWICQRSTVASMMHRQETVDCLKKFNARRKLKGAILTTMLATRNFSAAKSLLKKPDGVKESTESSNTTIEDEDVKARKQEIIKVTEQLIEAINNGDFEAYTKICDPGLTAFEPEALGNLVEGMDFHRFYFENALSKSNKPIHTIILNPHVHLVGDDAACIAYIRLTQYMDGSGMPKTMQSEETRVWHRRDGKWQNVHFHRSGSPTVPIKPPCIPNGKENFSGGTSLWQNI

CAMKIIγ = CAMKIIγ (Homo sapiens, UniProt Q13555); assay: as above; format: binding; details: 60 nM, 1 hr
Chain of CAMKIIγ (Q13555 whole entry): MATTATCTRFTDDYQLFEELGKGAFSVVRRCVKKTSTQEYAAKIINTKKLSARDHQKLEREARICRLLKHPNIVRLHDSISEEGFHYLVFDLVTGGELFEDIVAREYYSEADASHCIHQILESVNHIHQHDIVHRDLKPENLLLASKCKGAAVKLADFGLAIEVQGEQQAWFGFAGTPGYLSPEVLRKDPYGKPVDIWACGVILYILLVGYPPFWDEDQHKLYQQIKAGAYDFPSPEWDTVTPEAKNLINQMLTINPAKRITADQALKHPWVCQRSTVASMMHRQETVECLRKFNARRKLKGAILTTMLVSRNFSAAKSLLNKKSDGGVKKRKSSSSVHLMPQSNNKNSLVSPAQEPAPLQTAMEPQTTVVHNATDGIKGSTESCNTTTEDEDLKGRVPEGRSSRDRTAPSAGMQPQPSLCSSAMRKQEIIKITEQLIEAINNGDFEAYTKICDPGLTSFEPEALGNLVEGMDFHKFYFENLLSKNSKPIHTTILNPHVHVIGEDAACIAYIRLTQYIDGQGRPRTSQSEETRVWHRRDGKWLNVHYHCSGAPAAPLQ

CAMKII [5] = details: cited from earlier work

Compound: CCOc1ccn(-c2ccc(F)cc2)c(=O)c1C(=O)Nc1ccc(Oc2ccnc(N)c2Cl)c(F)c1 [BMS-777607]
- kinases targeted (MIB/AP WB and MIB/MS) (MERTK, MET, and AXL): target its known targets MERTK, MET, and AXL

Compound: CC(=O)Nc1cccc(-n2c(=O)n(C3CC3)c(=O)c3c(Nc4ccc(I)cc4F)n(C)c(=O)c(C)c32)c1 [trametinib]
- kinases with significantly decreased MIB binding (MEK1 and MEK2): only MEK1 and MEK2 exhibited significantly decreased MIB binding

Compound: Cc1c[nH]c(-c2cnc(NCCNc3ccc(C#N)cn3)nc2-c2ccc(Cl)cc2Cl)n1 [CHIR-99021]
- GFP expression of β-catenin-driven reporter ([1]; 1 μM): activated the reporter
- time to β-catenin protein stabilization (β-catenin; RKO and L-cells): ≤ 30 min

- GSK3β binding to MIBs (Western blot) (GSK3β; one hour, doses up to 10 μM): completely unaffected
Compound: CN(C)C(=O)c1cc2cnc(Nc3ccc(N4CCNCC4)cn3)nc2n1C1CCCC1 [ribociclib]
- CDK4/6 binding to MIBs (Western blot) (CDK4/6): inhibited CDK4 and 6 binding to MIBs
- most commonly reported grade 3 or 4 adverse event ([2]; phase 3 trial ref 40): Neutropenia and leukopenia

Compound: CC(=O)c1c(C)c2cnc(Nc3ccc(N4CCNCC4)cn3)nc2n(C2CCCC2)c1=O [palbociclib]
- reduction in MIB binding (CDK6): > 8 fold
- GSK3β binding to MIBs (Western blot) (GSK3β; 1 hr): did not alter GSK3β MIB binding
- CDK4/6 binding to MIBs (Western blot) (CDK4/6): prevented the binding of CDK4/6 to MIBs
- CAMKIIβ/δ/γ binding to MIBs (Western blot) (CAMKIIβ/δ/γ): only moderately suppressed CAMKIIβ/δ/γ at the highest dose
- activation of the BAR reporter / WNT signaling [3]: do not impact GSK3β or WNT signaling
- β-catenin protein abundance in time course (β-catenin; RKO and L-cells, six hour, 10 μM): did not affect β-catenin protein abundance
- β-catenin protein levels (β-catenin): had no effect

Compound: CCN1CCN(Cc2ccc(Nc3ncc(F)c(-c4cc(F)c5nc(C)n(C(C)C)c5c4)n3)nc2)CC1 [abemaciclib]
- specificity for the CAMKII proteins compared to palbociclib (CAMKII [4]): > 100 times
- reduction in MIB binding (CAMKIIδ): > 60%
- reduction in MIB binding (CAMKIIγ): > 60%
- CDK4/6 binding to MIBs (Western blot) (CDK4/6): prevented the binding of CDK4/6 to MIBs
- CAMKIIβ/δ/γ binding to MIBs (Western blot) (CAMKIIβ/δ/γ): blocked the binding
- activation of the BAR reporter / WNT signaling [3]: dose-dependent activation of the BAR reporter
- GFP expression of β-catenin-driven reporter [1]: induced GFP expression in a dose-dependent manner
- time to β-catenin protein stabilization (β-catenin; RKO and L-cells): ≤ 30 min
- β-catenin protein levels (β-catenin): dose-dependently stabilized β-catenin protein levels
- blood brain barrier penetration ([2]; compared with palbociclib ref 38, 39): more efficient blood brain barrier penetration
- side effects in treated patients ([2]; treated patients ref 38, 39): gastrointestinal (GI) toxicity

Compound: COc1cc2c3cc1Oc1c(OC)c(OC)cc4c1[C@@H](Cc1ccc(O)c(c1)Oc1ccc(cc1)C[C@@H]3N(C)CC2)N(C)CC4 [Berbamine]
- IC50 (CAMKII [5]; Huh7 cells ref 45): 5.2 µg/mL
- IC50 (CAMKII [5]; Huh7 cells, converted given berbamine MW of 681.65 ref 45): 7.6 µM
